Reference: article PMC3541179, “Structural Insights into the Dual Strategy of Recognition by Peptidoglycan Recognition Protein, PGRP-S: Structure of the Ternary Complex of PGRP-S with Lipopolysaccharide and Stearic Acid” (PLoS ONE, 2013)

Biological target: T1, CPGRP-S (camel short peptidoglycan recognition protein, PGRP-S) (Camelus dromedarius, UniProt Q9GK12)
T1 construct: gene PGLYRP1; native, purified from camel milk; full mature chain, residues 1-171, about 19-20 kDa; A-B and C-D contacts forming a linear polymer, 4 molecules in the asymmetric unit
Assay: X-ray crystallography (soaked crystals, […] A); SPR on immobilized protein also shows binding
Conditions: ternary complex with LPS at Site-1 (C-D contact); SA at Site-2 (A-B contact); crystals soaked in 70% reservoir solution and 30% ethanol
Excerpt: (camel short peptidoglycan recognition protein, PGRP-S) | SA is placed in the cleft at the A-B contact

T1 sequence (Q9GK12 23-193): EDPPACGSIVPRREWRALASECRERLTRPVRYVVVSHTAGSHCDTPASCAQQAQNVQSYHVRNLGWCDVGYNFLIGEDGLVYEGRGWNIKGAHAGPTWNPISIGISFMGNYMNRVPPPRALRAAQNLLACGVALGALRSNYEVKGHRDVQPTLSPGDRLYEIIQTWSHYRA

Compound: CCCCCCCCCCCCCCCCCC(=O)O [SA, stearic acid]
- X-ray crystallography (soaked crystals, 2.8 A); SPR on immobilized protein also: SA is placed in the cleft at the A–B contact
